Measured values as given in a melting point compilation (Tetko et al.).

SMILES	melting point [°C]
COc1ccc(C(C)=O)cc1CSCC(=O)O	106 to 108
COc1ccsc1C(=O)O	179 to 181
O=C(O)c1cc(S(=O)(=O)NCc2cccnc2)c(Cl)cc1Cl	245 to 247
O/N=C1\CCN2CCCCC12 (configuration not stated)	96 to 98
CC(C)CCNC(=O)CC(=O)NCCC(C)C	69 to 71
O=C(O)C1CC2CCCCC2N1C(=O)OCC1c2ccccc2-c2ccccc21 (configuration not stated)	169 to 171
CC(C)(C)OC(=O)NC(C#N)c1ccc(F)cc1 (configuration not stated)	85 to 87
NC(=O)c1c[nH]c2ccccc12	201 to 203
NCc1nnc2n1CCCC2	99 to 101
O=Cc1ccc(OCC(=O)Nc2ccccc2)cc1	125 to 127
O=C(O)CC(Br)C(=O)c1ccc(F)cc1 (configuration not stated)	128 to 131
O=C(O)CCC(Cc1ccc(Cl)cc1)C(=O)O (configuration not stated)	137 to 139
CC(C)CC(C)n1nccc1N (configuration not stated)	55 to 57
Nc1ccccc1OCCN1CC(=O)Nc2ccccc21	147 to 149
CCc1ccc(S(=O)(=O)Cl)cc1C(=O)O	133 to 135
O=Cc1sc(N2CCOCC2)nc1-c1ccccc1	181 to 183
O=[N+]([O-])c1cc(Cl)c(S(=O)(=O)Cl)c(Cl)c1	92 to 94
Clc1nc(C2CC2)nc2scc(-c3ccccc3)c12	77 to 79
COC(=O)C(=O)CC(=O)c1ccc(OC)c(OC)c1	141 to 150
O=C(NCC1CCCC1)n1ccnc1	61 to 63
CC1(C(=O)O)CCCc2ccccc21 (configuration not stated)	113 to 115
CCc1ccc(-c2ccc(C=O)o2)cc1	45 to 47
O=C(Cc1ccccc1)C(Br)c1ccccc1 (configuration not stated)	47 to 49
Cc1nn(-c2ccccc2)c2nc(Cl)c(C=O)cc12	189 to 191
O=C(c1cccnc1Cl)N1CCCCC1	67 to 69

SMILES	melting point [°C]
O=C(O)c1ccccc1Nc1ccc(OC(F)F)cc1	153 to 155
Cn1ncc2c(=O)n(CCC(=O)O)cnc21	212 to 214
Cc1nn(-c2ccccc2)cc1C=O	58 to 60
Ic1cnc2ccccn12	166 to 168
CC(CC(=O)O)c1ccc(F)cc1 (configuration not stated)	64 to 66
CC(C)(C)OC(=O)NC(CN)CN	58 to 60
NC(=O)CCc1ccc(N)cc1	131 to 133
Cn1cc(C(=O)O)ccc1=O	236 to 238
Clc1ccc(CBr)c2ncccc12	94 to 96
O=[N+]([O-])c1ccc(OCC(F)(F)F)cc1	73 to 75
Cc1cccc2[nH]cc(C=O)c12	188 to 190
Cc1cccc(C(=O)NC(C)C(=O)O)c1 (configuration not stated)	117 to 119
Nc1cc(-c2cc(Cl)cc(Cl)c2)[nH]n1	159 to 161
N#Cc1cccc(OCC(F)(F)F)n1	51 to 53
CN(C)c1cccc(-c2nnc(S)n2N)c1	209 to 211
O=Cc1csc(-c2ccccn2)n1	130 to 132
COc1cccc(CNc2ccc(F)cc2)c1O	76 to 78
NC(=O)c1cccc(C(=O)O)n1	249 to 251
CC(=O)c1c(C)[nH]c2ccccc12	195 to 197
Nc1ccc(N2CCOCC2)c(S(=O)(=O)Nc2cc(Cl)ccc2Cl)c1	66 to 68
CCS(=O)(=O)CC(=O)O	57 to 59
O=C(O)c1ccc(SCc2cn3ccccc3n2)cc1	102 to 103
CC(C)NC(=O)c1ccc(C(=O)O)cc1	179 to 181
CN(C)c1ccc(C2NCC(CCl)O2)cc1 (configuration not stated)	104 to 106
Cc1ccc(-c2nnc(N)o2)s1	247 to 249

SMILES	melting point [°C]
Cc1ccc(-n2c(N)nc3cc(C)ccc32)cc1	162 to 164
Nc1nc2cc(Br)ccc2o1	172 to 174
O=C1C=CC(=O)N1c1cccc(C(F)(F)F)c1	67 to 69
O=[N+]([O-])c1cccnc1N1CCC(CO)CC1	71 to 73
Clc1nc(-c2ccccn2)nc2scc(-c3ccccc3)c12	160 to 162
Nc1cc(-c2cccs2)no1	91 to 93
Cc1ccc(OCc2cccc(C(=O)O)c2)cn1	166 to 168
COc1cc(OC)c(S(=O)(=O)Cl)cc1Br	193 to 195
Cc1nn(-c2ccc(F)cc2)c(Cl)c1CO	134 to 136
Cc1cc(N)ccc1C(=O)O	154 to 156
CS(=O)(=O)Nc1ccc(Br)cc1Cl	98 to 100
NC(=S)N1CCSCC1	157 to 159
Brc1ccc(-c2cscn2)cc1	69 to 71
NC(=O)CSc1nnc(S)s1	192 to 194
NC1CCC2SCCSC12 (configuration not stated)	49 to 51
Cc1cc(C(=O)O)ncn1	129 to 131
NS(=O)(=O)CC1CCC1	97 to 99
ON=Cc1cnc2ccccn12	183 to 185
NNc1ccc([N+](=O)[O-])cn1	194 to 196
CNc1ccc2ccccc2n1	69 to 71
Cc1ncsc1NC(=O)OC(C)(C)C	136 to 138
CS(=O)(=O)Cc1cccc(S(=O)(=O)Cl)c1	142 to 144
CCOC(=O)COc1ccc(C(C)=O)cc1	52 to 54
COc1ccc(C(=O)c2ccc(C)cc2)cc1	88 to 90
N#CC1(O)CCOCC1	43 to 45

SMILES	melting point [°C]
O=C1CC2CCCC(C1)N2Cc1cccs1	88 to 90
Cc1ccc2cc(C(=O)O)[nH]c2c1	209 to 211
Cc1oc2[nH]c(=O)n(-c3ccccc3)c(=O)c2c1C(=O)O	289 to 291
CC(C)(C)Oc1ccc(C(=O)O)cn1	139 to 141
O=C1NCC2(CCCC2)O1	89 to 91
NC(=O)N1CCC(N)CC1	64 to 66
Cc1c(C(=O)O)sc2ccsc12	235 to 237
CNC(=O)c1cc(S(=O)(=O)Cl)cn1C	154 to 156
Nc1nc2ccc(Br)cn2n1	183 to 185
Nc1ccc2nncn2c1	169 to 171
O=C(Cc1nc2ccccc2s1)Nc1ccc(Cl)cc1	164 to 166
NNc1c(F)cc(C(=O)NC2CC2)cc1F	204 to 206
CS(=O)(=O)OCC1CCOCC1	61 to 63
CC(C)C(=O)Nc1ccc(C(=O)O)cc1	240 to 242
Cc1cccc2nc(CCl)cc(=O)n12	120 to 122
Nc1ncc(C(=O)O)cc1Br	299 to 301
NC(=S)c1ccc(Cl)c(Cl)c1	136 to 138
CC(Cl)C(=O)NC(C)(C)C (configuration not stated)	84 to 86
O=C(O)c1cnc(C2CCCO2)s1 (configuration not stated)	139 to 141
O=C1CCCC(N2C(=O)c3ccccc3C2=O)C1 (configuration not stated)	147 to 149
Cn1cc(CC(=O)O)cn1	121 to 123
COc1ccc(N)c(C(=O)NC2CC2)c1	137 to 139
CCCn1c(S)nnc1CO	119 to 121
Nc1nc2ncccc2[nH]1	268 to 270
O=C(O)c1cc2ccccc2c(OCC2CC2)n1	177 to 179

SMILES	melting point [°C]
CC(=O)c1cc(CCC(=O)O)oc1C	90 to 95
CC(C)c1sc(N)nc1-c1ccccc1	231 to 233
CC(C)(C)OC(=O)N1CCC(O)(c2ccccc2CO)CC1	106 to 108
NNC(=O)Cc1ccncc1	91 to 93
CC(=O)CC(=O)Nc1ccccc1C(F)(F)F	60 to 62
Nc1cc(CC2CCCCC2)n[nH]1	72 to 74
O=C(O)C=CC1=CCCC1	147 to 149
CC(C)Oc1ccccc1CC(=O)O	92 to 94
CN(C)c1nc(=NN)cc[nH]1	144 to 146
O=C(O)c1cncc(N2CCOCC2)c1	258 to 260
O=C(O)c1ccccc1SCC(F)(F)F	169 to 171
Nc1ccccc1C(O)C(F)(F)F (configuration not stated)	119 to 121
O=C(O)CCc1ccc(S(=O)(=O)NC2CC2)cc1	173 to 175
CCOC(=O)c1cc(F)c(F)cc1N	82 to 84
ON=Cc1c(Cl)nc2ccccn12	209 to 211
Nc1ccc(-n2ccnc2)cc1	143 to 147
N#CCc1ccc(Oc2ncccn2)cc1	70 to 72
Nc1ccnc(Oc2ccccc2Br)c1	108 to 110
CCC1C(=O)NCCN1C(N)=S (configuration not stated)	216 to 218
N#CCC(=O)Nc1ccc(C(=O)O)cc1	195 to 197
O=c1oc2ccccc2o1	116 to 118
O=C(O)c1cc(S(=O)(=O)N2CCCC2)c[nH]1	175 to 177
Cc1ccc(S(=O)(=O)N(C)CC(=O)O)cc1	228 to 230
O=C(O)c1ccc(Cn2cccc2)cc1	161 to 163
COC(=O)c1ccc(N)s1	115 to 117

SMILES	melting point [°C]
CN(C)S(=O)(=O)c1cccc(C(=O)NN)c1	149 to 151
O=C(O)CCc1ccc([N+](=O)[O-])cn1	135 to 137
CC1(C)CCC(C)(O)CC1	49 to 51
O=Cc1ccc(-c2ccc(C(F)(F)F)cc2)s1	124 to 126
COc1cc2ncn(CCCC(=O)O)c(=O)c2cc1OC	198 to 200
O=C(C1Cc2ccccc2CN1)N1CCCC1 (configuration not stated)	88 to 90
COc1ccc(CCC(=O)O)cc1F	111 to 113
COC(=O)c1c(O)c(Cl)cc(Cl)c1Cl	113 to 115
CC(=O)N1CCCc2cc(S(=O)(=O)Cl)ccc21	127 to 129
COC(=O)c1cncnc1O	201 to 203
CN[C@@H]1CN(C(=O)OC(C)(C)C)C[C@H]1O	89 to 91
Cc1ccc(N)cc1S(C)(=O)=O	72 to 74
N#Cc1cc(Cl)ccc1OC1CCOC1 (configuration not stated)	128 to 130
Cn1cc(N2CCNCC2)cn1	68 to 70
O=C(O)CCC(=O)Nc1sc2c(c1C(=O)NCC1CCCO1)CCCC2 (configuration not stated)	151 to 153
OC1(Cc2cccc(F)c2)CCNC1 (configuration not stated)	59 to 61
CN1CCc2ccc(S(=O)(=O)Cl)cc21	62 to 64
Nc1ncnc2c1ncn2CCCCl	339 to 341
O=C(O)C1(O)CCSCC1	118 to 120
O=S(=O)(c1ccc(C(F)(F)F)cc1)N1CCNCC1	163 to 169
O=C(CBr)c1ccc(N2CCCC2=O)cc1	130 to 132
N#CCCn1cc(C(=O)O)c(-c2cccc3ccccc23)n1	179 to 181
